The results in this text go back to publication PMC4206519, “Lack of Renoprotective Effect of Chronic Intravenous Angiotensin-(1-7) or Angiotensin-(2-10) in a Rat Model of Focal Segmental Glomerulosclerosis” (PLoS ONE, 2014).

Where two headings read alike, the source gives them in different places.

Data set [1] deals with uni-nephrectomized fawn-hooded hypertensive (FHH) rats. The note with it: late disease model; for systolic blood pressure at 6 weeks of treatment / systolic blood pressure after 12 weeks of treatment: tail-cuff, mean ± SEM, SEM; for systolic blood pressure at 6 weeks of treatment / degree of glomerulosclerosis (semiquantitative score 0-4): captopril 100 mg/kg/d or losartan 20 mg/kg/d orally; for systolic blood pressure at 6 weeks of treatment: vehicle 179±2; for systolic blood pressure after 12 weeks of treatment: captopril 100 mg/kg/d, losartan 20 mg/kg/d orally, low-dose Ang-(2-10) 100 ng/kg/min iv, vehicle 185±3; for degree of glomerulosclerosis (semiquantitative score 0-4): vehicle 2.29±0.9. The method, then: (§1) Male FHH rats (In-house colony established from animals obtained from Charles River Laboratories, Wilmington, MA) were housed at a certified animal facility at 22°C and a 12∶12 h light/dark cycle. […] All surgeries were performed under isoflurane anesthesia (5% induction, 2% maintenance), at 37°C, and perioperative buprenorphine.
(§2) Following anesthesia, an incision was made in the left flank; the kidney was exposed and excised after ligation of the pedicle. […] Under anesthesia, a mini-pump was placed in a subcutaneous pocket. […] Pumps were replaced once during the treatment period. For the early disease model, five groups of rats were examined. […] For the late disease model, eight groups of rats were examined. […] The dosages of the Ang peptides were selected based on previous studies where Ang-(1-7) was similarly administered using implanted osmotic mini-pumps, [16], [17], [26]. […] Systemic blood pressure was measured by tail-cuff sphygmomanometer (Natume, Japan). Animals were placed on metabolic cages for urine collection at pre-specified time points. Urinary protein excretion was measured by the method of Lowry. Urinary sodium concentration was measured by ion-selective electrodes. At sacrifice, kidneys were harvested for histological analysis and measurement of Ang peptide concentration.
(§3) Upon harvesting, kidneys were cleared of blood by transcardiac perfusion of iced-cold phosphate buffered saline, excised and fixed in 4% paraformaldehyde, embedded in paraffin and processed for microscopic examination. Kidney sections (2-µm) were stained with hematoxylin-eosin (H&E), Jones silver and Periodic Acid Schiff (PAS). Slides were reviewed by an experienced renal pathologist (S.S) in a blinded fashion. Index of glomerulosclerosis was evaluated by a semiquantitative score based on the percentage of the glomerular tuft occupied by sclerotic lesions (0: no lesions, 1: lesions affecting less than 25% of the glomerulus, 2-3-4: lesions affecting 25–50%, 50–75% and 75–100% of the glomerulus, respectively). Tubular injury was rated based on presence of tubular atrophy, microcystic tubular dilation and interstitial fibrosis, from 0 to 3 (0: none; 1: mild; 2: moderate; 3: severe).
(§4) Blood pressure data were analyzed by repeated measures ANOVA. Differences within groups were analyzed using paired t-tests adjusted with Bonferroni modification. Differences between group means at each time point were tested using one-way ANOVA followed by Tukey-Kramer post-hoc test. Urinary protein excretions were log10 transformed and tested using a two-way ANOVA for repeated measures followed by Scheffe post hoc test for differences between the groups. Untransformed 24-hour urinary protein excretions at each time point were then tested using Kruskal-Wallis test. If a significant main effect was detected then differences between groups were tested using the Mann-Whitney U test with the probability adjusted using the Bonferroni modification. Urine sodium was also assessed by two-way ANOVA for repeated measures and pairwise multiple comparisons were made using the Holm-Sidak method. Multiple comparisons of Ang peptide levels were made using ANOVA when data were normally distributed and with log10 transformation when non-normally distributed. Post-hoc pairwise comparisons were made using the Holm-Sidak method. […] For Ang peptide measurements by LC/MS/MS, only values above the LLOQ were utilized for statistical comparisons.

The subject of data set [2] is kidney homogenates of uni-nephrectomized FHH rats. Briefly: Intrarenal Ang peptide content by parallel reaction monitoring (LC/MS/MS), late disease protocol. It is filed as in vivo, rat. Conditions: late disease model. The method, then:
Stable isotope labeled peptide standards (SIS, ^13C ^15N, New England Peptide, Gardner, MA) were resuspended in water to 1 nM and stored at −80C in Lo-Bind microcentrifuge tubes (Eppendorf) with the exception of Ang-I, which was resuspended in 30% acetonitrile and stored at 0.4 nM final concentration. Ang-(1-7), Ang-II, and Ang-(2-10) contained isotopically labeled valine. Ang-I contained isotopically labeled valine and proline. Peptide concentration was determined by amino acid analysis.
Tissues were stored frozen at −80°C in 15 ml Falcon tubes. Whole kidney tissues were submerged in liquid nitrogen for 5 minutes and kidney tissue was processed in a biopulverizer (MidSci, St. Louis, MO) to a fine powder. Pulverized tissue was transferred to a 5-ml glass dounce with a chilled spatula. Approximately 200 mg of tissue was used for peptide extraction. Four volumes of ice cold methanol (Burdick and Jackson, LC-MS Grade) were added to the tissue followed by a volume of water (Burdick and Jackson, LC-MS Grade) containing O-phenanthroline (Sigma Aldrich) and SIS peptides resulting in a final concentration of 1 mM and 1.8 nM, respectively. Tissue was homogenized in the dounce on ice for 1 minute. An aliquot of tissue homogenate was transferred to a 2-ml lo-bind microcentrifuge tube and stored at −20°C for at least 1 hour. Samples were further centrifuged for 10 minutes at 10,000×g at 4°C. An aliquot equal to approximately 60% of the total sample volume was transferred to a lo-bind tube equivalent to 100 mg of tissue (wet weight). From this aliquot, a volume equal to the wet weight of the starting tissue was transferred to a new lo-bind tube and diluted with ice cold water so that the final concentration of methanol was 40%. […] The filtrate volume was estimated by variable volume pipet and recorded to determine the fraction of starting volume collected. […] Declustering potential was set at 80 V. For parallel reaction monitoring (PRM) quantification, the dominant charge state of each peptide was determined and collision energies were optimized manually for SIS peptides (Table 1). […]

In data set [3] the test system is uni-nephrectomized fawn-hooded hypertensive (FHH) rats. Briefly: Model of FSGS, early disease protocol (blood pressure, proteinuria, histology, weights, urine). The class given is in vivo, rat. The method, then: as §1, §2, §3, §4
The next data set addresses T1, AT1a receptor (Rattus norvegicus, UniProt P25095).
T1 construct: expressed in transfected cells
T1 sequence (P25095 1-359): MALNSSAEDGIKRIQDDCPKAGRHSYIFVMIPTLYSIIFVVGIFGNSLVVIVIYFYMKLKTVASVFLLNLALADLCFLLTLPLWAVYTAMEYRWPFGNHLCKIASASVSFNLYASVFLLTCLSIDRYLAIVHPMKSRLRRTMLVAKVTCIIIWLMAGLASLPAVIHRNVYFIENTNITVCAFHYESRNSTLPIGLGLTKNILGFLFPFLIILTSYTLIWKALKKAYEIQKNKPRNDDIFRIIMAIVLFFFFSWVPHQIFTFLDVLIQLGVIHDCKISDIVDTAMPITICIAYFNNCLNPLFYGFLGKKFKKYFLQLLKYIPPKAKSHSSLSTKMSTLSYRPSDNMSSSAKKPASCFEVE
Briefly: Ang peptide radioligand binding assay, displacement of [125I]-Ang-II (AT1R/HEK). Conditions: competition with [125I]-Ang-II, HEK-293 cells stably expressing AT1a receptor, 90 min on ice, log-logit analysis; average of n studies. The method, then: (§5) HEK-293 cells stably expressing AT1a receptor were maintained and characterized as previously described. HEK-293 cells expressing AT2 receptors were transfected with pcDNA3.1 plasmid containing human AT2 receptor DNA using Lipofectamine 2000 at 1 µg DNA/well of a six-well plate according to manufacturer's protocol (Invitrogen, Carlsbad, CA). Transfected cells were maintained in Minimal Essential Medium (MEM) containing 10% fetal bovine serum and 1% antibiotic/fungizone/antimycotic with addition of geneticin (400 µg/ml) for stable transfectants. Confluent monolayers cells were deprived of serum (0.1% bovine serum albumin) for 2–24 hours before assay. […] After 90 min of incubation on ice, cells were gently washed 3 times with ice cold 0.9% sodium chloride followed by solubilization of the cell monolayer with 0.1 N NaOH/0.1% SDS. The solubilized sample was placed into a gamma counter for determination of cell-associated radioactivity. Log-logit analysis of the obtained competition curves was performed for determination of IC50 values.
Background: In a radioligand displacement assay an active substance lowers the binding of a labelled ligand.

In the next data set the target is T2, human AT2 receptor (Homo sapiens, UniProt P50052).
T2 construct: expressed in transfected cells
T2 sequence (P50052 1-363): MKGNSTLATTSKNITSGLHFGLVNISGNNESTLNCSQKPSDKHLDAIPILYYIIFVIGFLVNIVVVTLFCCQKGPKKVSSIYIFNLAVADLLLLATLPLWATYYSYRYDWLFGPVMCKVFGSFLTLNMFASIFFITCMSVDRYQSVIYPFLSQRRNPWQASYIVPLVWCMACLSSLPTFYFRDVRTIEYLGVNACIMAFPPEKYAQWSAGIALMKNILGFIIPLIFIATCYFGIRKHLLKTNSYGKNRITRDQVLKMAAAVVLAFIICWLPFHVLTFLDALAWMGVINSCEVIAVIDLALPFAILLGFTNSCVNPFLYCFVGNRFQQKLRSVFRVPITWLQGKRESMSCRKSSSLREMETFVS
The experiment in a line: Ang peptide radioligand binding assay, displacement of [125I]-Ang-II (AT2R/HEK). Conditions: competition with [125I]-Ang-II, HEK-293 cells stably transfected with human AT2 receptor, 90 min on ice, log-logit analysis; average of n studies. The method, then: as §5

For the compound `C[C@H](CS)C(=O)N1CCC[C@H]1C(=O)O` [Captopril, captopril], in data set [1] (captopril 100 mg/kg/d orally, vehicle +342±289, p=0.012), the “progression of the degree of proteinuria between weeks 18 and 24” value is -225 ± 453 mg/day. In data set [1], the “systolic blood pressure at 6 weeks of treatment” value turned out to be 156±7 mmHg. Moreover, in data set [1], the “systolic blood pressure after 12 weeks of treatment” value was found to be 145±5 mmHg. Further, the “degree of glomerulosclerosis (semiquantitative score 0-4)” value amounted to 0.88±0.2 in data set [1] (week 30, after 12 weeks) and 0.1±0.1 in data set [3] (after 8 weeks, Ang-II 100 ng/kg/min iv, captopril 100 mg/kg/d, mean ± SEM, vehicle 0.4±0.1, SEM). The “tubular injury score (0-3)” value is given as 2.6±0.4 in data set [1] (week 30, after 12 weeks, captopril 100 mg/kg/d orally, printed as captopril vs. vehicle, p<0.05) and “non-significant reduction” in data set [3] (after 8 weeks, Ang-II 100 ng/kg/min iv, captopril 100 mg/kg/d, mean ± SEM, vehicle 0.8±0.2). Further, in data set [2] (after 12 weeks, captopril 100 mg/kg/d, Mann-Whitney U test p=0.002, n=5/group), the “kidney Ang-II levels compared with vehicle (in words)” value was “lower”. The “urinary protein excretion (proteinuria), median (range), after 4 weeks” value in data set [3] (captopril 100 mg/kg/d, Lowry method, n=5, vehicle 89 (31–188), p=0.014 vs vehicle) is on record as 14 (13–17) mg/day. The “urinary protein excretion (proteinuria), median (range), after 8 weeks” value in data set [3] (captopril 100 mg/kg/d, Lowry method, n=5, vehicle 243 (91–402), p=0.014 vs vehicle) is recorded as 30 (25–33) mg/day. Also, the “systolic blood pressure after 4 weeks of therapy” value in data set [3] (tail-cuff, captopril 100 mg/kg/d in drinking water, n=5, mean ± SEM, vehicle 161±4, SEM) turned out to be 117±5 mmHg. Moreover, the “systolic blood pressure after 8 weeks of therapy” value in data set [3] (tail-cuff, captopril 100 mg/kg/d in drinking water, n=5, mean ± SEM, vehicle 162±4, SEM) is given as 134±3 mmHg.

For `CC[C@H](C)[C@H](NC(=O)[C@H](Cc1ccc(O)cc1)NC(=O)[C@@H](NC(=O)[C@H](CCCNC(=N)N)NC(=O)[C@@H](N)CC(=O)O)C(C)C)C(=O)N[C@@H](Cc1cnc[nH]1)C(=O)N1CCC[C@H]1C(=O)N[C@@H](Cc1ccccc1)C(=O)O` [Ang-II, Angiotensin (Ang) II], in data set [1] (Ang-II low-dose 100 ng/kg/min iv, time mark = 6 weeks of treatment), the “survival (in words)” value is “no rats in this group survived beyond that time mark”.

One may read the IC50 as the concentration at which inhibition is half-maximal. Higher therefore signals weaker potency. Regarding `CC[C@H](C)[C@H](NC(=O)[C@H](Cc1ccc(O)cc1)NC(=O)[C@@H](NC(=O)[C@H](CCCNC(=N)N)NC(=O)[C@@H](N)CC(=O)O)C(C)C)C(=O)N[C@@H](Cc1c[nH]cn1)C(=O)N1CCC[C@H]1C(=O)O` [Ang-(1-7)], the half-inhibitory concentration (IC50) was 3790 nM on AT1a receptor and 60.9 nM on human AT2 receptor. Further, the “intrarenal level of the exogenously administered peptide (in words)” value in data set [2] (kidneys harvested at sacrifice, chronic iv infusion 100-400 ng/kg/min, whole kidney homogenate, LC-MS/MS (PRM)) was “did not lead to a significant increase”.

Consider `CCCCc1nc(Cl)c(CO)n1Cc1ccc(-c2ccccc2-c2nn[nH]n2)cc1` [Losartan, losartan], for which, in data set [1], the “systolic blood pressure at 6 weeks of treatment” value came out at 155±5 mmHg and the “systolic blood pressure after 12 weeks of treatment” value worked out at 146±5 mmHg. In data set [1] (week 30, after 12 weeks), the “degree of glomerulosclerosis (semiquantitative score 0-4)” value came out at 1.28±0.7.
